# Assays:
# Assay type in all cases: functional
# RPMI-8226 [1] = assay: Growth inhibition of human RPMI8226 cells by sulforhodamine B assay
# CCRF-CEM [2] = assay: Growth inhibition of human CCRF-CEM cells by sulforhodamine B assay
# OVCAR-3 [3] = assay: Growth inhibition of human OVCAR3 cells assessed as cell growth at 10^-8 M by sulforhodamine B assay; settings: read-out: Activity
# NCI-H460 [4] = assay: Growth inhibition of human NCI-H460 cells assessed as cell growth at 10^-8 M by sulforhodamine B assay; settings: read-out: Activity
# T47D [5] = assay: Growth inhibition of human T47D cells by sulforhodamine B assay
# [6] = Growth inhibition of human Hs 578T cells by sulforhodamine B assay
# MDA-MB-231 = assay: Growth inhibition of human MDA-MB-231 cells by sulforhodamine B assay
# UO-31 = assay: Growth inhibition of human UO31 cells by sulforhodamine B assay
# CAKI-1 [7] = assay: Growth inhibition of human CAKI-1 cells by sulforhodamine B assay
# T47D [8] = assay: Growth inhibition of human T47D cells assessed as cell growth at 10^-4 M by sulforhodamine B assay; settings: read-out: Activity
# OVCAR-3 [9] = assay: Growth inhibition of human OVCAR3 cells assessed as cell growth at 10^-4 M by sulforhodamine B assay; settings: read-out: Activity
# UACC-257 = assay: Growth inhibition of human UACC257 cells assessed as cell growth at 10^-4 M by sulforhodamine B assay; settings: read-out: Activity
# SK-MEL-5 = assay: Growth inhibition of human SK-MEL-5 cells assessed as cell growth at 10^-4 M by sulforhodamine B assay; settings: read-out: Activity
# SK-MEL-28 = assay: Growth inhibition of human SK-MEL-28 cells assessed as cell growth at 10^-4 M by sulforhodamine B assay; settings: read-out: Activity
# COLO 205 = assay: Growth inhibition of human COLO205 cells assessed as cell growth at 10^-4 M by sulforhodamine B assay; settings: read-out: Activity
# NCI-H460 [10] = assay: Growth inhibition of human NCI-H460 cells assessed as cell growth at 10^-4 M by sulforhodamine B assay; settings: read-out: Activity
# NCI-H23 = assay: Growth inhibition of human NCI-H23 cells assessed as cell growth at 10^-4 M by sulforhodamine B assay; settings: read-out: Activity
# MOLT-4 = assay: Growth inhibition of human MOLT4 cells assessed as cell growth at 10^-4 M by sulforhodamine B assay; settings: read-out: Activity
# HL-60(TB) = assay: Growth inhibition of human HL-60(TB) cells assessed as cell growth at 10^-4 M by sulforhodamine B assay; settings: read-out: Activity
# CAKI-1 [11] = assay: Growth inhibition of human CAKI-1 cells assessed as cell growth at 10^-6 M by sulforhodamine B assay; settings: read-out: Activity
# [12] = Growth inhibition of human NCI-ADR-RES cells assessed as cell growth at 10^-6 M by sulforhodamine B assay; settings: read-out: Activity
# OVCAR-3 [13] = assay: Growth inhibition of human OVCAR3 cells assessed as cell growth at 10^-6 M by sulforhodamine B assay; settings: read-out: Activity
# MDA-MB-435 = assay: Growth inhibition of human MDA-MB-435 cells assessed as cell growth at 10^-6 M by sulforhodamine B assay; settings: read-out: Activity
# Malme-3M = assay: Growth inhibition of human MALME-3M cells assessed as cell growth at 10^-6 M by sulforhodamine B assay; settings: read-out: Activity
# U-251 = assay: Growth inhibition of human U251 cells assessed as cell growth at 10^-6 M by sulforhodamine B assay; settings: read-out: Activity
# NCI-H460 [14] = assay: Growth inhibition of human NCI-H460 cells assessed as cell growth at 10^-6 M by sulforhodamine B assay; settings: read-out: Activity
# NCI-H522 = assay: Growth inhibition of human NCI-H522 cells assessed as cell growth at 10^-6 M by sulforhodamine B assay; settings: read-out: Activity
# RPMI-8226 [15] = assay: Growth inhibition of human RPMI8226 cells assessed as cell growth at 10^-6 M by sulforhodamine B assay; settings: read-out: Activity
# CCRF-CEM [16] = assay: Growth inhibition of human CCRF-CEM cells assessed as cell growth at 10^-6 M by sulforhodamine B assay; settings: read-out: Activity
# [17] = Growth inhibition of human Hs 578T cells assessed as cell growth at 10^-7 M by sulforhodamine B assay; settings: read-out: Activity
# OVCAR-4 = assay: Growth inhibition of human OVCAR4 cells assessed as cell growth at 10^-7 M by sulforhodamine B assay; settings: read-out: Activity
# OVCAR-3 [18] = assay: Growth inhibition of human OVCAR3 cells assessed as cell growth at 10^-7 M by sulforhodamine B assay; settings: read-out: Activity
# SK-MEL-2 = assay: Growth inhibition of human SK-MEL-2 cells assessed as cell growth at 10^-7 M by sulforhodamine B assay; settings: read-out: Activity
# SNB-75 = assay: Growth inhibition of human SNB75 cells assessed as cell growth at 10^-7 M by sulforhodamine B assay; settings: read-out: Activity
# SF-539 = assay: Growth inhibition of human SF539 cells assessed as cell growth at 10^-7 M by sulforhodamine B assay; settings: read-out: Activity
# HOP-92 = assay: Growth inhibition of human HOP92 cells assessed as cell growth at 10^-7 M by sulforhodamine B assay; settings: read-out: Activity
# NCI-H226 = assay: Growth inhibition of human NCI-H226 cells assessed as cell growth at 10^-7 M by sulforhodamine B assay; settings: read-out: Activity
# RPMI-8226 [19] = assay: Growth inhibition of human RPMI8226 cells assessed as cell growth at 10^-7 M by sulforhodamine B assay; settings: read-out: Activity
# CCRF-CEM [20] = assay: Growth inhibition of human CCRF-CEM cells assessed as cell growth at 10^-7 M by sulforhodamine B assay; settings: read-out: Activity
# RXF 393 = assay: Growth inhibition of human RXF393 cells assessed as cell growth at 10^-8 M by sulforhodamine B assay; settings: read-out: Activity
# [21] = read-out: LC50 (the source's name)
# [22] = read-out: pLC50 (the source's name) (converted)
smiles,measurement,setting,value
C/C=C(/C)C(=O)O[C@@H]1CC(C)(C)C[C@H]2C3=CC[C@@H]4[C@@]5(C)CC[C@H](O)C(C)(C)[C@@H]5CC[C@@]4(C)[C@]3(C)CC[C@@]12C(=O)O [Reduced Lantadene A],GI50,RPMI-8226 [1]; read-out: GI50,1850 nM
same,CC50,RPMI-8226 [1]; [21],> 100 µM
same,TGI,RPMI-8226 [1]; read-out: TGI,8.71 µM
same,GI50,RPMI-8226 [1]; read-out: pGI50 (converted),1860 nM
same,CC50,RPMI-8226 [1]; [22],> 100 µM
same,TGI,RPMI-8226 [1]; read-out: pTGI (converted),8.71 µM
same,GI50,CCRF-CEM [2]; read-out: GI50,2310 nM
same,CC50,CCRF-CEM [2]; [21],> 100 µM
same,TGI,CCRF-CEM [2]; read-out: TGI,6.52 µM
same,GI50,CCRF-CEM [2]; read-out: pGI50 (converted),2290 nM
same,CC50,CCRF-CEM [2]; [22],> 100 µM
same,TGI,CCRF-CEM [2]; read-out: pTGI (converted),6.46 µM
same,growth at 0.01 µM,OVCAR-3 [3],106%
same,growth at 0.01 µM,NCI-H460 [4],101%
same,GI50,T47D [5]; read-out: GI50,11.8 µM
same,CC50,T47D [5]; [21],> 100 µM
same,TGI,T47D [5]; read-out: TGI,41.1 µM
same,GI50,T47D [5]; read-out: pGI50 (converted),11.7 µM
same,CC50,T47D [5]; [22],> 100 µM
same,TGI,T47D [5]; read-out: pTGI (converted),40.7 µM
same,GI50,[6]; read-out: GI50,2130 nM
same,CC50,[6]; [21],> 100 µM
same,TGI,[6]; read-out: TGI,5.21 µM
same,GI50,[6]; read-out: pGI50 (converted),2140 nM
same,CC50,[6]; [22],> 100 µM
same,TGI,[6]; read-out: pTGI (converted),5.25 µM
same,GI50,MDA-MB-231; read-out: GI50,1650 nM
same,CC50,MDA-MB-231; [21],5.98 µM
same,TGI,MDA-MB-231; read-out: TGI,3.14 µM
same,GI50,MDA-MB-231; read-out: pGI50 (converted),1660 nM
same,CC50,MDA-MB-231; [22],6.03 µM
same,TGI,MDA-MB-231; read-out: pTGI (converted),3.16 µM
same,GI50,UO-31; read-out: GI50,1640 nM
same,CC50,UO-31; [21],5.91 µM
same,TGI,UO-31; read-out: TGI,3.12 µM
same,GI50,UO-31; read-out: pGI50 (converted),1660 nM
same,CC50,UO-31; [22],5.89 µM
same,TGI,UO-31; read-out: pTGI (converted),3.09 µM
same,GI50,CAKI-1 [7]; read-out: GI50,2480 nM
same,CC50,CAKI-1 [7]; [21],56.3 µM
same,TGI,CAKI-1 [7]; read-out: TGI,9.08 µM
same,GI50,CAKI-1 [7]; read-out: pGI50 (converted),2450 nM
same,CC50,CAKI-1 [7]; [22],56.2 µM
same,TGI,CAKI-1 [7]; read-out: pTGI (converted),9.12 µM
same,growth at 100 µM,T47D [8],-36%
same,growth at 100 µM,OVCAR-3 [9],-48%
same,growth at 100 µM,UACC-257,-69%
same,growth at 100 µM,SK-MEL-5,-63%
same,growth at 100 µM,SK-MEL-28,-41%
same,growth at 100 µM,COLO 205,3%
same,growth at 100 µM,NCI-H460 [10],-37%
same,growth at 100 µM,NCI-H23,-51%
same,growth at 100 µM,MOLT-4,-36%
same,growth at 100 µM,HL-60(TB),-36%
same,growth at 1 µM,CAKI-1 [11],85%
same,growth at 1 µM,[12],96%
same,growth at 1 µM,OVCAR-3 [13],104%
same,growth at 1 µM,MDA-MB-435,90%
same,growth at 1 µM,Malme-3M,92%
same,growth at 1 µM,U-251,83%
same,growth at 1 µM,NCI-H460 [14],89%
same,growth at 1 µM,NCI-H522,93%
same,growth at 1 µM,RPMI-8226 [15],70%
same,growth at 1 µM,CCRF-CEM [16],90%
same,growth at 0.1 µM,[17],91%
same,growth at 0.1 µM,OVCAR-4,99%
same,growth at 0.1 µM,OVCAR-3 [18],112%
same,growth at 0.1 µM,SK-MEL-2,106%
same,growth at 0.1 µM,SNB-75,78%
same,growth at 0.1 µM,SF-539,103%
same,growth at 0.1 µM,HOP-92,76%
same,growth at 0.1 µM,NCI-H226,94%
same,growth at 0.1 µM,RPMI-8226 [19],92%
same,growth at 0.1 µM,CCRF-CEM [20],100%
same,growth at 0.01 µM,RXF 393,93%

# Source: ChEMBL document CHEMBL2413072, “Synthesis and in vitro anticancer studies of novel C-2 arylidene congeners of lantadenes” (2013)
